Assay results published in PubChem BioAssay AID248 (DTP/NCI, 2004).
Where “and” joins values, the source holds several entries; their conditions need not be identical. Equal values may be shown once. Inconclusive results and toxic doses are left out. No stated cut-off is given here; in the data, active means T/C of 150% or more; inactive means T/C below 125%.

Tested on: L1210 leukemia ip in BDF1 mice, survival T/C
Assay: NCI In Vivo Anticancer Drug Screen. Data for tumor model L1210 Leukemia (intraperitoneal) in B6D2F1 (BDF1) mice
Settings: endpoint: mean survival time, higher = longer survival
Procedure, shortened: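 Antitumor effect is assessed in tumor-bearing animals. Survival in the compound arm is compared with a vehicle-dosed control arm and expressed as their quotient.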

[1] = dose: 100.0 mg/kg/injection, schedule: Q01DX009 (ip), vehicle: saline with Tween-80
[2] = dose: 400.0 mg/kg/injection, schedule: Q01DX009 (ip), vehicle: saline with Tween-80
[3] = dose: 100.0 mg/kg/injection, schedule: Q01DX009 (ip), vehicle: Klucel (hydroxypropylcellulose) (HPC)
[4] = dose: 200.0 mg/kg/injection, schedule: Q01DX009 (ip), vehicle: Klucel (hydroxypropylcellulose) (HPC)
[5] = dose: 100.0 mg/kg/injection, schedule: Q01DX001 (ip), vehicle: saline

Measured: T/C

N#CCC(=O)NCCc1ccccn1
inactive: dose: 25.0 mg/kg/injection, schedule: Q04DX002 (ip), vehicle: saline with Tween-80 93 % of control | dose: 50.0 mg/kg/injection, schedule: Q04DX002 (ip), vehicle: saline with Tween-80 97 % of control | dose: 100.0 mg/kg/injection, schedule: Q04DX002 (ip), vehicle: saline with Tween-80 98 % of control and 101 % of control

CNC(=O)Oc1ccc2ccccc2c1
inactive: dose: 100.0 mg/kg/injection, schedule: Q01DX009 (ip), vehicle: other 101 % of control | dose: 200.0 mg/kg/injection, schedule: Q01DX009 (ip), vehicle: other 104 % of control | dose: 400.0 mg/kg/injection, schedule: Q01DX009 (ip), vehicle: other 93 % of control

COc1ccccc1/C1=C/CCCCCC1
inactive: dose: 50.0 mg/kg/injection, schedule: Q01DX009 (ip), vehicle: acetone 90 % of control | dose: 100.0 mg/kg/injection, schedule: Q01DX009 (ip), vehicle: acetone 88 % of control | dose: 100.0 mg/kg/injection, schedule: Q04DX003 (ip), vehicle: acetone 100 % of control | dose: 200.0 mg/kg/injection, schedule: Q01DX009 (ip), vehicle: acetone 87 % of control | dose: 200.0 mg/kg/injection, schedule: Q04DX003 (ip), vehicle: acetone 92 % of control | dose: 400.0 mg/kg/injection, schedule: Q04DX003 (ip), vehicle: acetone 89 % of control

CCCCCCCCCCCCCCCC(=O)N(c1ccc(NC(=O)Nc2ccc(N(C(=O)CCCCCCCCCCCCCCC)C(C)CCCN(CC)CC)cc2)cc1)C(C)CCCN(CC)CC (centres undefined)
inactive: [1] 90 % of control | dose: 200.0 mg/kg/injection, schedule: Q01DX009 (ip), vehicle: saline with Tween-80 92 % of control | [2] 97 % of control

O=C1OC(=O)c2c1ccc(Br)c2Br
inactive: [3] 102 % of control | dose: 100.0 mg/kg/injection, schedule: Q04DX003 (ip), vehicle: Klucel (hydroxypropylcellulose) (HPC) 101 % of control | [4] 96 % of control | dose: 200.0 mg/kg/injection, schedule: Q04DX003 (ip), vehicle: Klucel (hydroxypropylcellulose) (HPC) 98 % of control | dose: 400.0 mg/kg/injection, schedule: Q01DX009 (ip), vehicle: Klucel (hydroxypropylcellulose) (HPC) 89 % of control | dose: 400.0 mg/kg/injection, schedule: Q04DX003 (ip), vehicle: Klucel (hydroxypropylcellulose) (HPC) 93 % of control

CSc1ncc(CO)c(NCc2ccco2)n1
inactive: dose: 100.0 mg/kg/injection, schedule: Q01DX001 (ip), vehicle: Klucel (hydroxypropylcellulose) (HPC) 98 % of control | dose: 200.0 mg/kg/injection, schedule: Q01DX001 (ip), vehicle: Klucel (hydroxypropylcellulose) (HPC) 98 % of control | dose: 400.0 mg/kg/injection, schedule: Q01DX001 (ip), vehicle: Klucel (hydroxypropylcellulose) (HPC) 98 % of control

COC1OC(CI)C(OC(C)=O)C(OC(C)=O)C1OS(C)(=O)=O (centres undefined)
inactive: dose: 100.0 mg/kg/injection, schedule: Q04DX002 (ip), vehicle: Klucel (hydroxypropylcellulose) (HPC) 97 % of control | dose: 200.0 mg/kg/injection, schedule: Q04DX002 (ip), vehicle: Klucel (hydroxypropylcellulose) (HPC) 106 % of control | dose: 400.0 mg/kg/injection, schedule: Q04DX002 (ip), vehicle: Klucel (hydroxypropylcellulose) (HPC) 91 % of control

CCOC(=O)n1cnc2ncnc(SC)c21
inactive: dose: 25.0 mg/kg/injection, schedule: Q01DX015 (ip), vehicle: saline 102 % of control | dose: 50.0 mg/kg/injection, schedule: Q01DX001 (ip), vehicle: carboxymethylcellulose (CMC) 94 % of control and 106 % of control | dose: 50.0 mg/kg/injection, schedule: Q01DX015 (ip), vehicle: saline 96 % of control | dose: 100.0 mg/kg/injection, schedule: Q01DX001 (ip), vehicle: carboxymethylcellulose (CMC) 109 % of control and 114 % of control | dose: 100.0 mg/kg/injection, schedule: Q01DX015 (ip), vehicle: saline 103 % of control | dose: 200.0 mg/kg/injection, schedule: Q01DX001 (ip), vehicle: carboxymethylcellulose (CMC) 88 % of control | dose: 200.0 mg/kg/injection, schedule: Q01DX015 (ip), vehicle: saline 91 % of control | dose: 400.0 mg/kg/injection, schedule: Q01DX001 (ip), vehicle: carboxymethylcellulose (CMC) 109 % of control

Cl/C=C(\Cl)CCl
inactive: [1] 100 % of control | dose: 100.0 mg/kg/injection, schedule: Q04DX003 (ip), vehicle: saline 97 % of control | dose: 200.0 mg/kg/injection, schedule: Q04DX003 (ip), vehicle: saline 102 % of control | dose: 400.0 mg/kg/injection, schedule: Q04DX003 (ip), vehicle: saline 105 % of control

c1ccc(Oc2ccc(-c3ccc(Oc4ccccc4)cc3)cc2)cc1
inactive: [1] 91 % of control | [2] 91 % of control

CNc1ncnc(N(C)C)c1[N+](=O)[O-]
inactive: dose: 50.0 mg/kg/injection, schedule: Q01DX009 (ip), vehicle: Klucel (hydroxypropylcellulose) (HPC) 102 % of control | [3] 98 % of control | [4] 109 % of control

CC(C)c1nccn1Cc1ccccc1
inactive: dose: 25.0 mg/kg/injection, schedule: Q01DX001 (ip), vehicle: saline 97 % of control | dose: 25.0 mg/kg/injection, schedule: Q01DX009 (ip), vehicle: saline 105 % of control and 118 % of control | dose: 25.0 mg/kg/injection, schedule: Q04DX002 (ip), vehicle: saline 100 % of control and 101 % of control and 90 % of control | dose: 25.0 mg/kg/injection, schedule: Q04DX003 (ip), vehicle: saline 100 % of control | dose: 50.0 mg/kg/injection, schedule: Q01DX001 (ip), vehicle: saline 97 % of control | dose: 50.0 mg/kg/injection, schedule: Q01DX009 (ip), vehicle: saline 100 % of control and 102 % of control | dose: 50.0 mg/kg/injection, schedule: Q04DX003 (ip), vehicle: saline 92 % of control | dose: 75.0 mg/kg/injection, schedule: Q04DX002 (ip), vehicle: saline 106 % of control | [5] 112 % of control | dose: 100.0 mg/kg/injection, schedule: Q01DX009 (ip), vehicle: saline 100 % of control and 89 % of control

CCCCN(CCCC)CN(CCCC)CCCC
inactive: dose: 25.0 mg/kg/injection, schedule: Q01DX009 (ip), vehicle: saline with Tween-80 97 % of control | dose: 50.0 mg/kg/injection, schedule: Q01DX009 (ip), vehicle: saline with Tween-80 100 % of control | [1] 100 % of control | dose: 100.0 mg/kg/injection, schedule: Q04DX002 (ip), vehicle: saline 95 % of control | dose: 200.0 mg/kg/injection, schedule: Q04DX002 (ip), vehicle: saline 95 % of control

CCOc1cc(/C=N/N2CCN(/N=C/c3ccc(O)c(OCC)c3)CC2)ccc1O
inactive: [5] 117 % of control | dose: 200.0 mg/kg/injection, schedule: Q01DX001 (ip), vehicle: saline 94 % of control | dose: 400.0 mg/kg/injection, schedule: Q01DX001 (ip), vehicle: saline 88 % of control

CC1(C)N=C(N)N=C(N)N1c1ccc(CCCCc2ccc(S(=O)(=O)F)cc2)c(Cl)c1
inactive: dose: 7.5 mg/kg/injection, schedule: Q01DX001 (ip), vehicle: saline 99 % of control | dose: 7.5 mg/kg/injection, schedule: Q04DX003 (ip), vehicle: saline 104 % of control | dose: 13.0 mg/kg/injection, schedule: Q01DX007 (ip), vehicle: saline with Tween-80 109 % of control | dose: 15.0 mg/kg/injection, schedule: Q01DX001 (ip), vehicle: saline 99 % of control | dose: 15.0 mg/kg/injection, schedule: Q04DX003 (ip), vehicle: saline 106 % of control | dose: 20.0 mg/kg/injection, schedule: Q01DX007 (ip), vehicle: saline with Tween-80 116 % of control | dose: 30.0 mg/kg/injection, schedule: Q01DX001 (ip), vehicle: saline 94 % of control | dose: 30.0 mg/kg/injection, schedule: Q01DX007 (ip), vehicle: saline with Tween-80 122 % of control | dose: 30.0 mg/kg/injection, schedule: Q04DX003 (ip), vehicle: saline 109 % of control | dose: 45.0 mg/kg/injection, schedule: Q01DX007 (ip), vehicle: saline with Tween-80 95 % of control

[N-]=[N+]=CC(=O)OCC(N)C(=O)O (centres undefined)
inactive: dose: 100.0 mg/kg/injection, schedule: Q01DX009 (ip), vehicle: water 103 % of control | dose: 200.0 mg/kg/injection, schedule: Q01DX009 (ip), vehicle: water 105 % of control | dose: 400.0 mg/kg/injection, schedule: Q01DX009 (ip), vehicle: water 89 % of control

O=C(NCCCCC(NC(=O)OCc1ccccc1)C(=O)NCCCNCCCCNCCCNC(=O)C(CCCCNC(=O)OCc1ccccc1)NC(=O)OCc1ccccc1)OCc1ccccc1 (centres undefined)
inactive: dose: 2.5 mg/kg/injection, schedule: Q01DX Z (ip), vehicle: saline 93 % of control | dose: 5.0 mg/kg/injection, schedule: Q01DX Z (ip), vehicle: saline 96 % of control | dose: 10.0 mg/kg/injection, schedule: Q01DX Z (ip), vehicle: saline 98 % of control | dose: 20.0 mg/kg/injection, schedule: Q01DX Z (ip), vehicle: saline 96 % of control
